Assay results: US20250282820A1, “PEPTIDE COMPLEX HAVING TRKB BINDING ACTIVITY” (PEPTIDREAM INC, priority 2022, published 2025)
*1 amine or outer side, *2 acyl side, *3 side chain or, on linkers, in order; H or OH if unused. Where a SMILES comes first, the peptide text is derived from it. Bridges are numbered along the chain shown (N, C = ends). Roman numbers before positions name the chains, in order. [ ]: non-standard residue; d: D form. ξ: configuration not given here. X4 = NC(=O)C(CCCCNC(=O)CCOCCC(=O)[*:1])NC(=O)CCOCCOCCOCCOCCOCCCCCOCCOCCN[*:2]; X3 = CC(C)[C@H](CC(=O)[C@H](Cc1cccnc1)N[*:1])C(=O)[*:2]; PEG8 = NCCOCCOCCOCCOCCOCCOCCOCCOCCC(=O)O; 3Pal = N[C@@H](Cc1cccnc1)C(=O)O; Thr(3ξ) = CC(O)[C@H](N)C(=O)O; ξC = NC(CS)C(=O)O

Legend:
[1] = biological target: T1, TrkB (CellSensor TrkB-NFAT-bla CHO-K1 Cell) (Homo sapiens, UniProt Q16620); assay: NFAT transcriptional reporter assay for TrkB agonist activity; format: cell-based; details: class = peptide concentration giving 50% or more activity; BDNF maximum signal = 100%, no stimulation = 0%; 5 hours culture
T1 construct: host or cells: CHO-K1 (CellSensor TrkB-NFAT-bla CHO-K1)
T1 sequence (Q16620 32-822): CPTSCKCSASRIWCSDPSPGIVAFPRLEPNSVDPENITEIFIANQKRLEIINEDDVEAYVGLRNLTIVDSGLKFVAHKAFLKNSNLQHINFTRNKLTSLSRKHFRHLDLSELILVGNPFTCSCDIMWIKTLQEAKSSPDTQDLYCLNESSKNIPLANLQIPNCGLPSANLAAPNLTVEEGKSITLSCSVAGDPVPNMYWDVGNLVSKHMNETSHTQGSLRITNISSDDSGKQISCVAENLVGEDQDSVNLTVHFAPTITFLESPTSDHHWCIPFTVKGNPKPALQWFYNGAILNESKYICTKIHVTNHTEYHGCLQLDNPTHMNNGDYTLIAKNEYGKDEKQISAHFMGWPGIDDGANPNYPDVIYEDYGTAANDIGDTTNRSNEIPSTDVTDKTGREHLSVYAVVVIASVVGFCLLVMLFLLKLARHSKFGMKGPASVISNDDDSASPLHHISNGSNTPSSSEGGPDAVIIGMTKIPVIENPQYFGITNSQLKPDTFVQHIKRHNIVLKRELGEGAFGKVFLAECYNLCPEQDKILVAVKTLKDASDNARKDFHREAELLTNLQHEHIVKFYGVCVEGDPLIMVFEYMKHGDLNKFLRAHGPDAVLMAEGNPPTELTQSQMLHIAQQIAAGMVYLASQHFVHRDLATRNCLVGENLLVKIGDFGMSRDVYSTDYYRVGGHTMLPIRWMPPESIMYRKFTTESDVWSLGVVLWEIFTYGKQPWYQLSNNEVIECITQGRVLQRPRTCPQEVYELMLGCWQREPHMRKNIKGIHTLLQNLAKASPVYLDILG
Description: To evaluate the TrkB activation potency of the TrkB agonist peptide of the present invention, transcriptional activity was examined using transcriptional reporters. The CellSensor (registered trademark) TrkB-NFAT-bla CHO-K1 Cell (Invitrogen) used in the AlphaLISA assay was cultured in the medium above. After the cells were detached using Accutase (Innovative Cell Technologies), the cells were suspended in an assay medium, wherein Blasticidin and Zeocin were removed, then seeded into a 96-well plate for adherent cultures at 12,500 cells per well and cultured overnight. Then, BDNF or a peptide was added thereto, and the cells were further cultured in a CO2 incubator for 5 hours. After the 96-well plate was removed from the incubator and brought to room temperature, a detection reagent (LiveBLAzer (registered trademark)-FRET B/G (CCF4-AM) Substrate Mixture) was added while protected from the light, and the 96-well plate was incubated while protected from the light in a moisture box with a lid for 2 hours. For signal detection, a EnVision 2104 Multilabel Plate Reader (PerkinElmer) was used, and the ratio of fluorescence emission value (460 nm/535 nm) was calculated. The obtained numerical values were analyzed with GraphPad Prism, and the activity (%) was calculated with the maximum value of the signals induced by BDNF as 100% and a signal with no stimulation as 0%. The peptide with 50% or more activity when 1 nM of the peptide was added was evaluated as A, the peptide with 50% or more activity when 10 nM of the peptide was added was evaluated as B, and the peptide with 50% or more activity when 100 nM of the peptide was added was evaluated as C. Those that were not evaluated were listed as not tested.
The BDNF was evaluated at 7 points (0.0024 nM to 10 nM) from 10 nM using 4-fold dilutions.
(§1) For dimer structures Nos. 1 to 3, the peptide was evaluated at 1 nM, 10 nM, and 100 nM, and, for other dimer structure numbers, the peptide was evaluated at 0.1 nM, 1 nM, and 10 nM. When creating the concentration dependence curve, the BDNF and the peptides were evaluated at 7 points (0.006 nM to 100 nM) from 25 nM using 4-fold dilutions.

[2] = biological target: T1, TrkB (CellSensor TrkB-NFAT-bla CHO-K1 Cell); assay: pERK1/2 AlphaLISA assay (phosphorylation of ERK) for TrkB agonist activity; format: cell-based; details: class = peptide concentration giving 50% or more activity; BDNF maximum signal = 100%, no stimulation = 0%; 15 minutes of stimulation
Description: To evaluate the TrkB activation potency of the TrkB agonist peptide of the present invention, the phosphorylation of ERK was examined. CellSensor (registered trademark) TrkB-NFAT-bla CHO-K1 Cell (Invitrogen) was cultured in DMEM, high glucose, GlutaMAX (registered trademark) Supplement, and pyruvate (Thermo), comprising 10% FBS (Thermo) and 1× Non-essential amino acids (Thermo), 25 mM HEPES (Thermo), 50 ug/mL Gentamicin, 5 ug/mL Blasticidin (Thermo), and 200 ug/mL Zeocin (Thermo). After the cells were detached using Accutase (Innovative Cell Technologies), they were seeded into a 96-well plate for adherent cultures at 12,500 cells per well and cultured overnight. The next day, for starvation, the culture solution above was replaced with a nutrient starvation medium comprising 0.1% BSA (Sigma), wherein FBS, Blasticidin, and Zeocin were removed from the culture medium, and culturing was performed for 4 hours. Thereafter, Recombinant Human BDNF Protein (R&D Systems) or a peptide was added, and after 15 minutes of stimulation, cells were lysed in the Lysis Buffer provided with the AlphaLISA SureFire Ultra p-Erk1/2 (Thr202/Tyr204) assay kit (PerkinElmer). The assay was performed according to the kit protocol. The signals were detected using a SpectraMax Paradigm Multi-Mode Microplate Reader (Molecular Devices). The obtained signals were analyzed with GraphPad Prism, and the activity (%) was calculated with the maximum value of the signals induced by BDNF as 100% and a signal with no stimulation as 0%. The peptide with 50% or more activity when 1 nM of the peptide was added was evaluated as A, and the peptide with 50% or more activity when 10 nM of the peptide was added was evaluated as B.
The BDNF was evaluated at 8 points (0.0006 nM to 10 nM) from 10 nM using 4-fold dilutions.
as §1, with “8” for “7”, “100” for “25”

Compound | NFAT Assay Results [1] | pERK (aLISA) Assay Results [2]
CC(C)C[C@@H]1NC(=O)[C@H](CO)NC(=O)[C@H](Cc2ccc(O)cc2)NC(=O)[C@H]([C@@H](C)O)NC(=O)[C@@H]2CCCN2C(=O)[C@H](Cc2c[nH]c3ccccc23)NC(=O)[C@H](Cc2cccnc2)NC(=O)[C@H](Cc2ccc(O)cc2)NC(=O)[C@@H]2CCCN2C(=O)[C@H](CC(C)C)NC(=O)[C@H](Cc2ccccc2)NC(=O)CSC[C@@H](C(=O)NCC(=O)NCCOCCOCCOCCOCCOCCOCCOCCOCCC(=O)NCCCC[C@H](NC(=O)CCOCCOCCOCCOCCOCCOCCOCCOCCNC(=O)CNC(=O)[C@@H]2CSCC(=O)N[C@@H](Cc3ccccc3)C(=O)N[C@@H](CC(C)C)C(=O)N3CCC[C@H]3C(=O)N[C@@H](Cc3ccc(O)cc3)C(=O)N[C@@H](Cc3cccnc3)C(=O)N[C@@H](Cc3c[nH]c4ccccc34)C(=O)N3CCC[C@H]3C(=O)N[C@@H]([C@@H](C)O)C(=O)N[C@@H](Cc3ccc(O)cc3)C(=O)N[C@@H](CO)C(=O)N[C@@H](CC(C)C)C(=O)N[C@@H](Cc3cccnc3)C(=O)N[C@@H](C(C)C)C(=O)N[C@@H](Cc3c[nH]c4ccccc34)C(=O)N2)C(N)=O)NC(=O)[C@H](Cc2c[nH]c3ccccc23)NC(=O)[C@H](C(C)C)NC(=O)[C@H](Cc2cccnc2)NC1=O [Dimer Structure No. 2] (I: {CH2CO}-FLPY[3Pal]WPTYSL[3Pal]VWCG[PEG8]K-NH2 / II: {CH2CO}-FLPY[3Pal]WPTYSL[3Pal]VWCG[PEG8]; amide I:18-II:C; thioether I:N-I:15, II:N-II:15) | C (the peptide with 50% or more activity when 100 nM of the peptide was added was evaluated as C) | B (the peptide with 50% or more activity when 10 nM of the peptide was added was evaluated as B)
CC(=O)NCCCC[C@@H]1NC(=O)[C@H](CO)NC(=O)[C@H](Cc2ccc(O)cc2)NC(=O)[C@H]([C@@H](C)O)NC(=O)[C@@H]2CCCN2C(=O)[C@H](Cc2c[nH]c3ccccc23)NC(=O)[C@H](Cc2cccnc2)NC(=O)[C@H](Cc2ccc(O)cc2)NC(=O)[C@@H]2CCCN2C(=O)[C@H](CC(C)C)NC(=O)[C@H](Cc2ccccc2)NC(=O)CSCC(C(=O)NCC(=O)NCCOCCOCCOCCOCCOCCOCCOCCOCCC(=O)N[C@@H](CCCCNC(=O)CCOCCC(=O)NCCCCC(NC(=O)CCOCCOCCOCCOCCOCCCCCOCCOCCNC(=O)CNC(=O)C2CSCC(=O)N[C@@H](Cc3ccccc3)C(=O)N[C@@H](CC(C)C)C(=O)N3CCC[C@H]3C(=O)N[C@@H](Cc3ccc(O)cc3)C(=O)N[C@@H](Cc3cccnc3)C(=O)N[C@@H](Cc3c[nH]c4ccccc34)C(=O)N3CCC[C@H]3C(=O)N[C@@H](C(C)O)C(=O)N[C@@H](Cc3ccc(O)cc3)C(=O)N[C@@H](CO)C(=O)N[C@@H](CCCCNC(C)=O)C(=O)N[C@@H](Cc3cccnc3)C(=O)N[C@@H](C(C)C)C(=O)N[C@@H](CCC(=O)O)C(=O)N2)C(N)=O)C(N)=O)NC(=O)[C@H](CCC(=O)O)NC(=O)[C@H](C(C)C)CC(=O)[C@H](Cc2cccnc2)NC1=O (stereo partly shown) [Dimer Structure No. 40] (I: {CH2CO}-FLPY[3Pal]WPTYSK(Ac)[X3]E[ξC]G[PEG8]K-NH2 / II: {CH2CO}-FLPY[3Pal]WP[Thr(3ξ)]YSK(Ac)[3Pal]VE[ξC]G; linker I:17-II:C via X4; thioether I:N-I:14, II:N-II:15) | B (the peptide with 50% or more activity when 10 nM of the peptide was added was evaluated as B) | B (the peptide with 50% or more activity when 10 nM of the peptide was added was evaluated as B)
